Test [1] deals with influenza A. Format: cell-based. The note with it: for reduction in viral loads of influenza A: 425 nm light 30 J/cm^2.
The test system of test [2] is human rhinovirus 1B. The format is cell-based.
Test [3] has as its system human coronavirus OC43 (HCoV-OC43). The experiment in a line: 425 nm light inhibition of HCoV-OC43 in the presence of vitamins in artificial saliva, virus titer (PFU/mL). The note with it: 10 μM RFN in artificial saliva, doses as low as 7.5 J/cm^2 (up to 45 J/cm^2), FIG. 1B. The format is cell-based. From the text:
FIGS. 1A to 1D are provided in the context of HCoV-OC43, which is generally known as one of the viruses associated with the common cold. FIG. 1A is a chart illustrating an experimental control where light treatments were applied to HCoV-OC43 samples in the absence of any vitamins. […] A first sample included HCoV-OC43 in only its corresponding media, and the other two samples further included different artificial saliva sources (labeled as Saliva 1 and Saliva 2 in FIG. 1A).
FIG. 1B is a chart illustrating light treatments on HCoV-OC43 samples where various amounts of riboflavin (abbreviated as RFN) were diluted in a same type of artificial saliva and added to the HCoV-OC43 samples.
FIG. 1C is a chart illustrating light treatments on HCoV-OC43 samples where various amounts of ascorbate (abbreviated as AA) and 10 μM of RFN were diluted in a same type of artificial saliva and added to the HCoV-OC43 samples. […] The constant amount of RFN (10 μM) was selected based on the improvements illustrated in FIG. 1B.
FIG. 1D is a chart illustrating light treatments on HCoV-OC43 samples where various amounts of ascorbate were diluted in a same type of artificial saliva and added to the HCoV-OC43 samples in the absence of riboflavin.

Test [4] has as its system MERS-CoV. The format is cell-based. The note with it: 1 μM riboflavin with various amounts of ascorbate in artificial saliva; 425 nm light 15 J/cm^2; FIG. 4B.
Test [5] deals with influenza B. The note with it: 10 μM riboflavin; 425 nm light 30 J/cm^2; FIG. 6F.

Entries after “also recorded” stand apart in the source; their conditions may differ. Read-outs that look alike come from different tables or passages of the source.

`Cc1cc2nc3c(=O)[nH]c(=O)nc-3n(C[C@H](O)[C@H](O)[C@H](O)CO)c2cc1C` [riboflavin]: the “inhibition in viral load of influenza A by riboflavin dosing alone” value in test [1] (0 J/cm^2 (no light), 0.1-10 μM riboflavin, FIG. 6E) is “some inhibition”. Further, the “reduction in viral loads of influenza A” value in test [1] (1 μM riboflavin, FIG. 6E) is “some reduction”; in test [1] (10 μM riboflavin, FIG. 6E), “substantial reduction; also recorded: dramatic reduction”. The “change in viral loads of influenza A” value in test [1] (10 μM riboflavin, 425 nm light 32 J/cm^2, FIG. 6D) is given as “dramatic decreases”. In addition, the “reduction in viral loads of human rhinovirus 1B” value in test [2] (10 μM riboflavin with various ascorbate in Saliva 2, 425 nm light 32 J/cm^2, FIG. 5B) is given as “some reduction”. In test [2] (0.1, 1, 10 μM RFN in Saliva 1, 425 nm light up to 30 J/cm^2, FIG. 5A), the “influence on viral loads of human rhinovirus 1B” value was “little to no influence”. Further, in test [3], the “change in HCoV-OC43 viral load compared with the 0 μM RFN sample” value was “significant decreases”. The “reductions in viral loads of MERS-CoV” value in test [4] was “greater than 99.999%”. Also, the “reduction in viral loads of influenza B” value in test [5] is “dramatic reduction”.
